Literature values, collected in patent US11725025B2, “Progesterone phosphate analogs and uses related thereto” (EMORY UNIVERSITY, priority 2013, dated 2023).

Assays:
[1] = tested on: moderate to severe TBI patients; details: 3 days of intravenous progesterone treatment; 100 moderate to severe TBI patients

In the case of `CC(=O)[C@H]1CC[C@H]2[C@@H]3CCC4=CC(=O)CC[C@]4(C)[C@H]3CC[C@]12C` [progesterone], the “functional outcomes at 30 days post-injury” value [1] is listed as “significantly improved”, the reduction of mortality [1] is listed as “over 60%” and the “solubility in aqueous-based formulations” value is listed as “insoluble”.
